Molecular target: T1, SULT1A3 in HME(+) cells (Homo sapiens, UniProt P0DMM9)
T1 construct: HME cells were transfected with plasmid containing the coding region of either SULT1A3 or a negative control; expressed in transfected cells
Assay: Ex vivo inhibition of dopamine sulfate (DPS) synthesis in SULT1A3-transfected HME(+) cells
Format: cell-based
Conditions: 100 μM DP, 24 h, parentheses 1 SD
Method: A stable transfectant cell line was constructed to test the ability of CMP12 and CMP13 to suppress catecholamine sulfonation in cultured human cells. […] HME cells were transfected with plasmid containing the coding region of either SULT1A3 or a negative control ([14]) (see Experiment and Transfection protocol). Transfectant isolates were grown to near confluence and harvested, and cell extracts were prepared (see Experiment). SULT1A3 levels in the extracts were assessed by determining SULT activity per μg extract (see Experiment). Activity in extracts of the SULT1A3-positive transfectants ranged from 1 to 85 times the levels present in negative-control extracts. […] Consequently, a transfectant, 1A3(+) with extract activity 42 times that of the negative-control isolate, 1A3(-), was selected for further experiments.
To establish conditions for ex vivo inhibition studies, the DP concentration and time dependence of dopamine sulfate (DPS) synthesis by 1A3(+) cells were assessed. DP and its metabolites (DPS, 3-methoxytyramine [3-MT], 3,4-dihydroxyphenylacetic acid [DOPAC], and homovanillic acid [HVA]) are baseline separable using HPLC and can be quantitated optically at […] (see Experiment and Fig. S1). Only DP and DPS were detected in the cell media, and together, they constituted >95% of the DP initially added to the media. The DPS concentration in the 1A3(+) media at 24 h after DP addition is plotted as a function of DP concentration in Fig. 6B. As is evident, the dose-response curve is linear at concentrations as high as 200 μM DP.
Figure 6 HME(+)-cell DPS synthesis and inhibition. A, Time dependence of DPS formation. DP was added at 100 μM to the growth medium of 60 to 70% confluent HME(+)-cells, and the DPS concentration in the medium was determined at the indicated time intervals. B, DP-concentration dependence of DPS synthesis. The Y-axis indicates the concentration of DPS in the growth media 24 h after DP addition. The X-axis indicates the DP concentration added at t = 0 to the growth medium of 60 to 70% confluent HME(+)-cells. […] The levels of DP (red dots) and DPS (blue dots) were determined 24 h after DP addition. […] A–D, dopamine metabolites were separated and quantitated using HPLC (see Experiment); each data point represents the average of three independent determinations, and the sum of DP and DPS concentrations was ≥95% of the total added DP. […]
Transfectants are grown to 60 to 70% confluency at 37 °C in 12-well plates in the MEM containing neomycin (400 μg ml^−1). […] DP metabolite peaks are baseline separated and detected optically at 280 nm (see Fig. S1). Standard curves were used to quantitate each metabolite (Ɛ280 = 3.2 and 2.8 mM^-1 cm^-1 for DP and DPS, respectively). DPS was detected only in the media of cells that express SULT1A3. […]

T1 sequence (P0DMM9 whole entry): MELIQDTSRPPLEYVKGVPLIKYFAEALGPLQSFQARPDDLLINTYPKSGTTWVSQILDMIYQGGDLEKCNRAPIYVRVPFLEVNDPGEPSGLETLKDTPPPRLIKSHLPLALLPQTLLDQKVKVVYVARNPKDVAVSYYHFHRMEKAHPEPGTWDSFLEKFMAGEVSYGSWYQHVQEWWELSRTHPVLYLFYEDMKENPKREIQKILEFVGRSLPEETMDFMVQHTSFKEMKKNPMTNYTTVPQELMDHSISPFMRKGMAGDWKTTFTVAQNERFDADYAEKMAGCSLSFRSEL

% Inhibition at saturation | IC50 | Structure (SMILES)
84 (3) % | 260 nM | CC(C)Cc1ccc2cc(CCC(N)=O)ccc2n1 [CMP12]
95 (2) % | 12 nM | CC(C)Cc1ccc2cc(/C=C/C(N)=O)cnc2n1 [CMP13]
